Where a name gives a salt, the structure may show the parent alone.
system: not given; settings: not given

melting point [°C] | Compound
> 250 | COc1ccc(-c2ccc(C(=O)NCCc3ccc4[nH]cc(C(=N)N)c4c3)cc2)cc1OC (as salt: salt) [Example 1o, 3′,4′-Dimethoxybiphenyl-4-carboxylic acid (2-[3-carbamimidoylindol-5-yl]ethyl)amide]
55 to 58 | N=C(N)c1c[nH]c2ccc(CCNC(=O)c3ccc(-c4cccnc4)cc3)cc12 [Example 1a, N-(2-[3-Carbamimidoyl-5-indolyl]ethyl)-4-pyrid-3-ylbenzamide]
196 to 199 | N=C(N)c1c[nH]c2ccc(CCNC(=O)c3ccc(-n4cncn4)nc3)cc12 [Example 1aa, N-(2-[3-Carbamimidoylindol-5-yl]ethyl)-6-(1,2,4)triazol-1-ylnicotinamide]
113 to 116 | N=C(N)c1c[nH]c2ccc(CCNC(=O)c3ccc(-c4ccncc4)cc3)cc12 [Example 1aaaaaaa, N-(2-[3-Carbamimidoylindol-5-yl]ethyl)-4-pyrid-4-ylbenzamide]
71 to 75 | CN(C)CCNC(=O)Cn1cc(-c2ccc(C(=O)NCCc3ccc4[nH]cc(C(=N)N)c4c3)cc2)ccc1=O [Example 1aaaaad, N-[2-(3-Carbamimidoyl-1H-indol-5-yl)-ethyl]-4-{1-[(2-dimethylaminoethylcarbamoyl)methyl]-6-oxo-1,6-dihydropyridin-3-yl}benzamide]
57 to 59 | CN(C)CCOc1ccc(-c2ccc(C(=O)NCCc3ccc4[nH]cc(C(=N)N)c4c3)cc2)cn1 [Example 1aaaaaz, N-(2-[3-Carbamimidoylindol-5-yl]ethyl)-4-(6-[2-dimethylaminoethoxy]pyridin-3-yl)benzamide]
159 to 161 | CC(Oc1nccc(-c2ccc(C(=O)NCCc3ccc4[nH]cc(C(=N)N)c4c3)cc2)n1)C(N)=O (stereo not shown) [Example 1aaaam, N-[2-(3-Carbamimidoyl-1H-indol-5-yl)ethyl]-4-[2-(1-carbamoylethoxy)pyrimidin-4-yl]benzamide]
82 to 84 | CN(C)CCCCCCOc1nccc(-c2ccc(C(=O)NCCc3ccc4[nH]cc(C(=N)N)c4c3)cc2)n1 [Example 1aaaan, N-[2-(3-Carbamimidoyl-1H-indol-5-yl)ethyl]-4-[2-(6-dimethylaminohexyloxy)pyrimidin-4-yl]benzamide]
145 to 147 | N=C(N)c1c[nH]c2ccc(CCNC(=O)c3ccc(-c4ccnc(OC5CCCNC5=O)n4)cc3)cc12 (stereo not shown) [Example 1aaaap, N-[2-(3-Carbamimidoyl-1H-indol-5-yl)ethyl]-4-[2-(2-oxopiperidin-3-yloxy)pyrimidin-4-yl]benzamide]
106 to 107 | CN(C)CCOc1nccc(-c2ccc(C(=O)NCCc3ccc4[nH]cc(C(=N)N)c4c3)cc2)n1 [Example 1aaaar, N-[2-(3-Carbamimidoyl-1H-indol-5-yl)ethyl]-4-[2-(2-dimethylaminoethoxy)pyrimidin-4-yl]benzamide]
99 to 101 | CN(C)CCOc1cccc(-c2ccc(C(=O)NCCc3ccc4[nH]cc(C(=N)N)c4c3)cc2)c1 [Example 1aaaas, 3′-(2-Dimethylaminoethoxy)biphenyl-4-carboxylic acid [2-(3-carbamimidoyl-1H-indol-5-yl)ethyl]amide]
73 to 76 | CN(C)CCOc1ccccc1-c1ccc(C(=O)NCCc2ccc3[nH]cc(C(=N)N)c3c2)cc1 [Example 1aaaau, 2′-(2-Dimethylaminoethoxy)biphenyl-4-carboxylic acid [2-(3-carbamimidoyl-1H-indol-5-yl)ethyl]amide]
76 to 78 | CN(C)CCCOc1ccccc1-c1ccc(C(=O)NCCc2ccc3[nH]cc(C(=N)N)c3c2)cc1 [Example 1aaaav, 2′-(3-Dimethylaminopropoxy)biphenyl-4-carboxylic acid [2-(3-carbamimidoyl-1H-indol-5-yl)ethyl]amide]
84 to 86 | CN(C)CCCOc1cccc(-c2ccc(C(=O)NCCc3ccc4[nH]cc(C(=N)N)c4c3)cc2)c1 [Example 1aaaaw, 3′-(3-Dimethylaminopropoxy)biphenyl-4-carboxylic acid [2-(3-carbamimidoyl-1H-indol-5-yl)ethyl]amide]
194 to 195 | N=C(N)c1c[nH]c2ccc(CCNC(=O)c3ccc(-c4ccnc(OCC(F)(F)F)n4)cc3)cc12 [Example 1aaag, N-[2-(3-Carbamimidoyl-1H-indol-5-yl)ethyl]-4-[2-(2,2,2-trifluoroethoxy)pyrimidin-4-yl]benzamide]
134 to 136 | N=C(N)c1c[nH]c2ccc(CCNC(=O)c3ccc(-c4ccnc(N5CCCC5)n4)cc3)cc12 [Example 1aaah, N-[2-(3-Carbamimidoyl-1H-indol-5-yl)-ethyl]-4-(2-pyrrolidin-1-ylpyrimidin-4-yl)benzamide]
159 to 161 | N=C(N)c1c[nH]c2ccc(CCNC(=O)c3ccc(-c4ccnc(NCCCCCCN5CCCC5)n4)cc3)cc12 [Example 1aaal, N-[2-(3-Carbamimidoyl-1H-indol-5-yl)ethyl]-4-[2-(6-pyrrolidin-1-yl-hexylamino)pyrimidin-4-yl]benzamide]

melting point [°C] | Compound
110 to 113 | N=C(N)c1c[nH]c2ccc(CCNC(=O)c3ccc(-c4ccnc(NCCCCCCN5CCCCC5)n4)cc3)cc12 [Example 1aaam, N-[2-(3-Carbamimidoyl-1H-indol-5-yl)ethyl]-4-[2-(6-piperidin-1-ylhexylamino)pyrimidin-4-yl]benzamide]
94 to 96 | N=C(N)c1c[nH]c2ccc(CCNC(=O)c3ccc(-c4ccnc(NCCCCN5CCCCC5)n4)cc3)cc12 [Example 1aaan, N-[2-(3-Carbamimidoyl-1H-indol-5-yl)ethyl]-4-[2-(4-piperidin-1-ylbutylamino)pyrimidin-4-yl]benzamide]
73 to 76 | CCN(CC)CCCCNc1nccc(-c2ccc(C(=O)NCCc3ccc4[nH]cc(C(=N)N)c4c3)cc2)n1 [Example 1aaap, N-[2-(3-Carbamimidoyl-1H-indol-5-yl)ethyl]-4-[2-(4-diethylaminobutylamino)pyrimidin-4-yl]benzamide]
129 to 130 | N=C(N)c1c[nH]c2ccc(CCNC(=O)c3ccc(-c4ccnc(NCCCCCCN5CCOCC5)n4)cc3)cc12 [Example 1aaaq, N-[2-(3-Carbamimidoyl-1H-indol-5-yl)ethyl]-4-[2-(6-morpholin-4-ylhexylamino)pyrimidin-4-yl]benzamide]
213 to 214 | N=C(N)c1c[nH]c2ccc(CCNC(=O)c3ccc(-n4cccc4)nc3)cc12 [Example 1ab, N-(2-[3-Carbamimidoylindol-5-yl]ethyl)-6-pyrrol-1-ylnicotinamide]
235 to 236 | N=C(N)c1c[nH]c2ccc(CCNC(=O)c3ccc(-n4cccn4)nc3)cc12 [Example 1ac, N-(2-[3-Carbamimidoylindol-5-yl]ethyl)-6-pyrazol-1-ylnicotinamide]
237 to 238 | COc1ccc(-c2ccc(C(=O)NCCc3ccc4c(c3)c(C(=N)N)cn4C)cc2)cn1 [Example 1ad, N-(2-[3-Carbamimidoyl-1-methylindol-5-yl]ethyl)-4-(6-methoxypyrid-3-yl)benzamide]
94 to 97 | CN(C)CCn1cc(-c2ccc(C(=O)NCCc3ccc4[nH]cc(C(=N)N)c4c3)cc2)ccc1=O [Example 1ap, N-(2-[3-Carbamimidoylindol-5-yl]ethyl)-4-(1-[2-dimethylaminoethyl]-6-oxo-1,6-dihydropyridin-3-yl)benzamide]
244 to 245 | N=C(N)c1c[nH]c2ccc(CCNC(=O)c3ccc(-c4ccc(=O)n(CC(N)=O)c4)cc3)cc12 [Example 1aq, N-(2-[3-Carbamimidoylindol-5-yl]ethyl)-4-(1-carbamoylmethyl-6-oxo-1,6-dihydropyridin-3-yl)benzamide]
198 to 200 | N=C(N)c1c[nH]c2ccc(CCNC(=O)c3ccc(-c4ccccn4)s3)cc12 [Example 1c, 5-(Pyrid-2-yl)-thiophene-2-carboxylic acid 2-(3-carbamimidoyl-5-indolyl)ethyl amide]
191 to 194 | N=C(N)c1c[nH]c2ccc(CCNC(=O)c3ccc(-n4ccnc4)cc3)cc12 [Example 1g, N-(2-[3-Carbamimidoylindol-5-yl]ethyl)-4-imidazol-1-ylbenzamide]
52 to 54 | N=C(N)c1c[nH]c2ccc(CCNC(=O)c3ccc(-c4cnc[nH]4)cc3)cc12 [Example 1h, N-(2-[3-Carbamimidoylindol-5-yl]ethyl)-4-(3H-imidazol-4-yl)benzamide]
222 to 224 | N=C(N)c1c[nH]c2ccc(CCNC(=O)c3ccc(-c4ncns4)cc3)cc12 [Example 1i, N-(2-[3-Carbamimidoylindol-5-yl]ethyl)-4-(1,2,4)thiadiazol-5-ylbenzamide]
164 to 167 | COc1ccc(-c2ccc(C(=O)NCCc3ccc4[nH]cc(C(=N)N)c4c3)cc2)cn1 [Example 1p, N-(2-[3-Carbamimidoylindol-5-yl]ethyl)-4-(6-methoxypyrid-3-yl)benzamide]
152 to 156 | N=C(N)c1c[nH]c2ccc(CCNC(=O)c3ccc(-c4ccc(=O)[nH]c4)cc3)cc12 [Example 1v, N-(2-[3-carbamimidoyl-1H-indol-5-yl]ethyl)-4-(6-oxo-1,6-dihydro-pyrid-3-yl)benzamide]
102 to 105 | N=C(N)c1c[nH]c2ccc(CCNC(=O)c3ccc(NCCO)nc3)cc12 [Example 1z, N-(2-[3-Carbamimidoylindol-5-yl]ethyl)-6-(2-hydroxyethylamino)nicotinamide]

system: rabbit carotid artery air-drying injury model; settings: after vascular injury; cited from earlier work

Compound | neointimal proliferation
CC(=N)N1CC[C@H](Oc2ccc([C@H](Cc3ccc4ccc(C(=N)N)cc4c3)C(=O)O)cc2)C1 [DX-9065a] | less neointimal proliferation

Source: US6541505B1, “Substituted (aminoiminomethyl or aminomethyl) benzoheteroaryl compounds” (Aventis Pharmaceuticals Inc., priority 1998, dated 2003)
